Measured values: patent US20230017045A1, “PYRIDINE AND PYRIMIDINE CARBOXYLATE HERBICIDES AND METHODS OF USE THEREOF” (Dow AgroSciences LLC, priority 2017, published 2023)

system: test plant species; assay: Post-emergent herbicidal activity test (greenhouse, foliar spray, visual growth reduction); assay type: in vivo; conditions: post-emergence, 336 h, ECHCG: barnyardgrass (Echinochloa crus-galli), 140 g ai/ha, 14 days after application, read-out: Visual Growth Reduction (%) 14 Days After Application, ECHCG
Summary of the method: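 Scoring used a 0 to 100 percent visual scale of growth reduction against solvent-treated controls, read 14 d after spraying. Applications went onto plants at first or second true leaf stage, 187 L/ha, with crop oil concentrate and X-77 surfactant in the carrier. Post-treatment watering was by subirrigation to avoid wash-off.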

Row | Structure (SMILES) | pest or weed control at 140 g/ha [%]
1 | C=Cc1cc(C(F)(F)F)cc(Cl)c1-c1ccc(Cl)c(C(=O)O)n1 [F222, 3-Chloro-6-(2-chloro-4-(trifluoromethyl)-6-vinylphenyl) picolinic acid] | 60 to 74
2 | O=C(O)c1nc(-c2ccc(C(F)(F)F)c(Cl)c2)ccc1Cl [F314, 3-Chloro-6-(3-chloro-4-(trifluoromethyl)phenyl) picolinic acid] | 0 to 29
3 | COC(=O)c1nc(-c2cc(C)c(C(F)(F)F)cc2F)c(F)cc1Cl [F360, Methyl 3-chloro-5-fluoro-6-(2-fluoro-5-methyl-4-(trifluoromethyl)phenyl)picolinate] | 0 to 29

same assay, conditions: post-emergence, 336 h, IPOHE: ivy-leaf morning glory (Ipomoea hederacea), 140 g ai/ha, 14 days after application, read-out: Visual Growth Reduction (%) 14 Days After Application, IPOHE

Row | Structure (SMILES) | pest or weed control at 140 g/ha [%]
4 | C=Cc1cc(C(F)(F)F)cc(Cl)c1-c1ccc(Cl)c(C(=O)O)n1 [F222, 3-Chloro-6-(2-chloro-4-(trifluoromethyl)-6-vinylphenyl) picolinic acid] | 95 to 100
5 | O=C(O)c1nc(-c2ccc(C(F)(F)F)c(Cl)c2)ccc1Cl [F314, 3-Chloro-6-(3-chloro-4-(trifluoromethyl)phenyl) picolinic acid] | 95 to 100
6 | COC(=O)c1nc(-c2cc(C)c(C(F)(F)F)cc2F)c(F)cc1Cl [F360, Methyl 3-chloro-5-fluoro-6-(2-fluoro-5-methyl-4-(trifluoromethyl)phenyl)picolinate] | 95 to 100

same assay, conditions: post-emergence, 336 h, KCHSC: kochia (Bassia scoparia), 140 g ai/ha, 14 days after application, read-out: Visual Growth Reduction (%) 14 Days After Application, KCHSC

Row | Structure (SMILES) | pest or weed control at 140 g/ha [%]
7 | C=Cc1cc(C(F)(F)F)cc(Cl)c1-c1ccc(Cl)c(C(=O)O)n1 [F222, 3-Chloro-6-(2-chloro-4-(trifluoromethyl)-6-vinylphenyl) picolinic acid] | 45 to 59
8 | O=C(O)c1nc(-c2ccc(C(F)(F)F)c(Cl)c2)ccc1Cl [F314, 3-Chloro-6-(3-chloro-4-(trifluoromethyl)phenyl) picolinic acid] | 0 to 29
9 | COC(=O)c1nc(-c2cc(C)c(C(F)(F)F)cc2F)c(F)cc1Cl [F360, Methyl 3-chloro-5-fluoro-6-(2-fluoro-5-methyl-4-(trifluoromethyl)phenyl)picolinate] | 45 to 59

same assay, conditions: post-emergence, 336 h, ORYSA: rice (Oryza sativa), 140 g ai/ha, 14 days after application, read-out: Visual Growth Reduction (%) 14 Days After Application, ORYSA

Row | Structure (SMILES) | pest or weed control at 140 g/ha [%]
10 | C=Cc1cc(C(F)(F)F)cc(Cl)c1-c1ccc(Cl)c(C(=O)O)n1 [F222, 3-Chloro-6-(2-chloro-4-(trifluoromethyl)-6-vinylphenyl) picolinic acid] | 0 to 29
11 | O=C(O)c1nc(-c2ccc(C(F)(F)F)c(Cl)c2)ccc1Cl [F314, 3-Chloro-6-(3-chloro-4-(trifluoromethyl)phenyl) picolinic acid] | 0 to 29
12 | COC(=O)c1nc(-c2cc(C)c(C(F)(F)F)cc2F)c(F)cc1Cl [F360, Methyl 3-chloro-5-fluoro-6-(2-fluoro-5-methyl-4-(trifluoromethyl)phenyl)picolinate] | 0 to 29

same assay, conditions: post-emergence, 336 h, SETFA: giant foxtail (Setaria faberi), 140 g ai/ha, 14 days after application, read-out: Visual Growth Reduction (%) 14 Days After Application, SETFA

Row | Structure (SMILES) | pest or weed control at 140 g/ha [%]
13 | C=Cc1cc(C(F)(F)F)cc(Cl)c1-c1ccc(Cl)c(C(=O)O)n1 [F222, 3-Chloro-6-(2-chloro-4-(trifluoromethyl)-6-vinylphenyl) picolinic acid] | 30 to 44
14 | O=C(O)c1nc(-c2ccc(C(F)(F)F)c(Cl)c2)ccc1Cl [F314, 3-Chloro-6-(3-chloro-4-(trifluoromethyl)phenyl) picolinic acid] | 0 to 29
15 | COC(=O)c1nc(-c2cc(C)c(C(F)(F)F)cc2F)c(F)cc1Cl [F360, Methyl 3-chloro-5-fluoro-6-(2-fluoro-5-methyl-4-(trifluoromethyl)phenyl)picolinate] | 0 to 29

same assay, conditions: post-emergence, 336 h, SORVU: grain sorghum (Sorghum vulgare), 140 g ai/ha, 14 days after application, read-out: Visual Growth Reduction (%) 14 Days After Application, SORVU

Row | Structure (SMILES) | pest or weed control at 140 g/ha [%]
16 | C=Cc1cc(C(F)(F)F)cc(Cl)c1-c1ccc(Cl)c(C(=O)O)n1 [F222, 3-Chloro-6-(2-chloro-4-(trifluoromethyl)-6-vinylphenyl) picolinic acid] | 75 to 84
17 | O=C(O)c1nc(-c2ccc(C(F)(F)F)c(Cl)c2)ccc1Cl [F314, 3-Chloro-6-(3-chloro-4-(trifluoromethyl)phenyl) picolinic acid] | 75 to 84
18 | COC(=O)c1nc(-c2cc(C)c(C(F)(F)F)cc2F)c(F)cc1Cl [F360, Methyl 3-chloro-5-fluoro-6-(2-fluoro-5-methyl-4-(trifluoromethyl)phenyl)picolinate] | 0 to 29

same assay, conditions: post-emergence, 336 h, STEME: common chickweed (Stellaria media), 140 g ai/ha, 14 days after application, read-out: Visual Growth Reduction (%) 14 Days After Application, STEME

Row | Structure (SMILES) | pest or weed control at 140 g/ha [%]
19 | C=Cc1cc(C(F)(F)F)cc(Cl)c1-c1ccc(Cl)c(C(=O)O)n1 [F222, 3-Chloro-6-(2-chloro-4-(trifluoromethyl)-6-vinylphenyl) picolinic acid] | 0 to 29
20 | O=C(O)c1nc(-c2ccc(C(F)(F)F)c(Cl)c2)ccc1Cl [F314, 3-Chloro-6-(3-chloro-4-(trifluoromethyl)phenyl) picolinic acid] | 0 to 29
21 | COC(=O)c1nc(-c2cc(C)c(C(F)(F)F)cc2F)c(F)cc1Cl [F360, Methyl 3-chloro-5-fluoro-6-(2-fluoro-5-methyl-4-(trifluoromethyl)phenyl)picolinate] | 0 to 29

same assay, conditions: post-emergence, 336 h, TRZAS: wheat, spring (Triticum aestivum), 140 g ai/ha, 14 days after application, read-out: Visual Growth Reduction (%) 14 Days After Application, TRZAS

Row | Structure (SMILES) | pest or weed control at 140 g/ha [%]
22 | C=Cc1cc(C(F)(F)F)cc(Cl)c1-c1ccc(Cl)c(C(=O)O)n1 [F222, 3-Chloro-6-(2-chloro-4-(trifluoromethyl)-6-vinylphenyl) picolinic acid] | 45 to 59
23 | O=C(O)c1nc(-c2ccc(C(F)(F)F)c(Cl)c2)ccc1Cl [F314, 3-Chloro-6-(3-chloro-4-(trifluoromethyl)phenyl) picolinic acid] | 0 to 29
24 | COC(=O)c1nc(-c2cc(C)c(C(F)(F)F)cc2F)c(F)cc1Cl [F360, Methyl 3-chloro-5-fluoro-6-(2-fluoro-5-methyl-4-(trifluoromethyl)phenyl)picolinate] | 0 to 29

same assay, conditions: post-emergence, 336 h, blackgrass (Alopecurus myosuroides), 14 Days After Application, 140 g ai/ha, read-out: Visual Growth Reduction (%) ALOMY

Row | Structure (SMILES) | pest or weed control at 140 g/ha [%]
25 | C=Cc1cc(C(F)(F)F)cc(Cl)c1-c1ccc(Cl)c(C(=O)O)n1 [F222, 3-Chloro-6-(2-chloro-4-(trifluoromethyl)-6-vinylphenyl) picolinic acid] | 0 to 29
26 | O=C(O)c1nc(-c2ccc(C(F)(F)F)c(Cl)c2)ccc1Cl [F314, 3-Chloro-6-(3-chloro-4-(trifluoromethyl)phenyl) picolinic acid] | 0 to 29
27 | COC(=O)c1nc(-c2cc(C)c(C(F)(F)F)cc2F)c(F)cc1Cl [F360, Methyl 3-chloro-5-fluoro-6-(2-fluoro-5-methyl-4-(trifluoromethyl)phenyl)picolinate] | 0 to 29

same assay, conditions: post-emergence, 336 h, canada thistle (Cirsium arvense), 14 Days After Application, 140 g ai/ha, read-out: Visual Growth Reduction (%) CIRAR

Row | Structure (SMILES) | pest or weed control at 140 g/ha [%]
28 | C=Cc1cc(C(F)(F)F)cc(Cl)c1-c1ccc(Cl)c(C(=O)O)n1 [F222, 3-Chloro-6-(2-chloro-4-(trifluoromethyl)-6-vinylphenyl) picolinic acid] | 85 to 94
29 | O=C(O)c1nc(-c2ccc(C(F)(F)F)c(Cl)c2)ccc1Cl [F314, 3-Chloro-6-(3-chloro-4-(trifluoromethyl)phenyl) picolinic acid] | 45 to 59
30 | COC(=O)c1nc(-c2cc(C)c(C(F)(F)F)cc2F)c(F)cc1Cl [F360, Methyl 3-chloro-5-fluoro-6-(2-fluoro-5-methyl-4-(trifluoromethyl)phenyl)picolinate] | 0 to 29

same assay, conditions: post-emergence, 336 h, crabgrass (Digitaria sanguinalis), 14 Days After Application, 140 g ai/ha, read-out: Visual Growth Reduction (%) DIGSA

Row | Structure (SMILES) | pest or weed control at 140 g/ha [%]
31 | C=Cc1cc(C(F)(F)F)cc(Cl)c1-c1ccc(Cl)c(C(=O)O)n1 [F222, 3-Chloro-6-(2-chloro-4-(trifluoromethyl)-6-vinylphenyl) picolinic acid] | 75 to 84
32 | O=C(O)c1nc(-c2ccc(C(F)(F)F)c(Cl)c2)ccc1Cl [F314, 3-Chloro-6-(3-chloro-4-(trifluoromethyl)phenyl) picolinic acid] | 75 to 84
33 | COC(=O)c1nc(-c2cc(C)c(C(F)(F)F)cc2F)c(F)cc1Cl [F360, Methyl 3-chloro-5-fluoro-6-(2-fluoro-5-methyl-4-(trifluoromethyl)phenyl)picolinate] | 0 to 29

same assay, conditions: post-emergence, 336 h, lambsquarters (Chenopodium album), 14 Days After Application, 140 g ai/ha, read-out: Visual Growth Reduction (%) CHEAL

Row | Structure (SMILES) | pest or weed control at 140 g/ha [%]
34 | C=Cc1cc(C(F)(F)F)cc(Cl)c1-c1ccc(Cl)c(C(=O)O)n1 [F222, 3-Chloro-6-(2-chloro-4-(trifluoromethyl)-6-vinylphenyl) picolinic acid] | 75 to 84
35 | O=C(O)c1nc(-c2ccc(C(F)(F)F)c(Cl)c2)ccc1Cl [F314, 3-Chloro-6-(3-chloro-4-(trifluoromethyl)phenyl) picolinic acid] | 30 to 44
36 | COC(=O)c1nc(-c2cc(C)c(C(F)(F)F)cc2F)c(F)cc1Cl [F360, Methyl 3-chloro-5-fluoro-6-(2-fluoro-5-methyl-4-(trifluoromethyl)phenyl)picolinate] | 95 to 100

same assay, conditions: post-emergence, 336 h, redroot pigweed (Amaranthus retroflexus), 14 Days After Application, 140 g ai/ha, read-out: Visual Growth Reduction (%) AMARE

Row | Structure (SMILES) | pest or weed control at 140 g/ha [%]
37 | C=Cc1cc(C(F)(F)F)cc(Cl)c1-c1ccc(Cl)c(C(=O)O)n1 [F222, 3-Chloro-6-(2-chloro-4-(trifluoromethyl)-6-vinylphenyl) picolinic acid] | 75 to 84
38 | O=C(O)c1nc(-c2ccc(C(F)(F)F)c(Cl)c2)ccc1Cl [F314, 3-Chloro-6-(3-chloro-4-(trifluoromethyl)phenyl) picolinic acid] | 0 to 29
39 | COC(=O)c1nc(-c2cc(C)c(C(F)(F)F)cc2F)c(F)cc1Cl [F360, Methyl 3-chloro-5-fluoro-6-(2-fluoro-5-methyl-4-(trifluoromethyl)phenyl)picolinate] | 95 to 100

same assay, conditions: post-emergence, 336 h, wild oat (Avena fatua), 14 Days After Application, 140 g ai/ha, read-out: Visual Growth Reduction (%) AVEFA

Row | Structure (SMILES) | pest or weed control at 140 g/ha [%]
40 | C=Cc1cc(C(F)(F)F)cc(Cl)c1-c1ccc(Cl)c(C(=O)O)n1 [F222, 3-Chloro-6-(2-chloro-4-(trifluoromethyl)-6-vinylphenyl) picolinic acid] | 0 to 29
41 | O=C(O)c1nc(-c2ccc(C(F)(F)F)c(Cl)c2)ccc1Cl [F314, 3-Chloro-6-(3-chloro-4-(trifluoromethyl)phenyl) picolinic acid] | 0 to 29
42 | COC(=O)c1nc(-c2cc(C)c(C(F)(F)F)cc2F)c(F)cc1Cl [F360, Methyl 3-chloro-5-fluoro-6-(2-fluoro-5-methyl-4-(trifluoromethyl)phenyl)picolinate] | 0 to 29

same assay, conditions: post-emergence, 336 h, yellow nutsedge (Cyperus esculentus), 14 Days After Application, 140 g ai/ha, read-out: Visual Growth Reduction (%) CYPES

Row | Structure (SMILES) | pest or weed control at 140 g/ha [%]
43 | C=Cc1cc(C(F)(F)F)cc(Cl)c1-c1ccc(Cl)c(C(=O)O)n1 [F222, 3-Chloro-6-(2-chloro-4-(trifluoromethyl)-6-vinylphenyl) picolinic acid] | 0 to 29
44 | O=C(O)c1nc(-c2ccc(C(F)(F)F)c(Cl)c2)ccc1Cl [F314, 3-Chloro-6-(3-chloro-4-(trifluoromethyl)phenyl) picolinic acid] | 0 to 29
45 | COC(=O)c1nc(-c2cc(C)c(C(F)(F)F)cc2F)c(F)cc1Cl [F360, Methyl 3-chloro-5-fluoro-6-(2-fluoro-5-methyl-4-(trifluoromethyl)phenyl)picolinate] | 0 to 29
